Data reported in patent US7960173B2, “Cardiac conduction system cells and uses thereof” (Board of Supervisors of Louisiana State University and …, priority 2004, dated 2011).

Test system: cGATA6-minK co-positive cells
Assay: Whole-cell patch-clamp of hyperpolarization-activated (If) current before and after cesium chloride
Assay type: cell-based, murine
Details: 10 mM cesium chloride, n=16 cells, FIG. 3(E),(F)
Procedure: On the day prior to recording, EBs were dispersed and plated onto glass coverslips coated with 0.1% gelatin. On the following day, coverslips were transferred to a recording chamber mounted on an inverted microscope (Nikon Diaphot-TMD) and superfused with extracellular recording solution. All experiments were conducted at room temperature (22-25° C.). Whole-cell voltage-clamp and current-clamp experiments were carried out using a standard Giga-seal patch-clamp method (Hamill O P et al. Pflugers Arch 391 (1981) 85). Recording electrodes were fabricated from 1.5 mm thin-walled borosilicate glass tubes (#7052. Garner Glass, Claremont, Calif.), using a Flaming-Brown microelectrode puller (P-97, Sutter Instruments, Novato, Calif.) and heat-polished before use. […] Recordings were performed using an Axoclamp 2B patch-clamp amplifier (Axon Instruments, Union City, Calif.). Data were filtered at 2 kHz, and data were acquired using Clampex 8 software (Axon Instruments). […]
In FIG. 3 (B) cGATA6-minK cells with morphologies similar to contracting atrial myocytes display atrial-like action potential waveforms (FIG. 3D). […] (F) Current-voltage relationship for hyperpolarization-activated currents measured in cGATA6-minK co-positive cells before (triangles) and after (squares) treatment with 10 mM cesium chloride. […]

Compound: [Cl-].[Cs+] [cesium chloride]
- sensitivity of hyperpolarization-activated cation current (If) to cesium: cesium-sensitive
